Source: patent US20230355708A1 (priority 2020, published 2023)
*1 amine or outer side, *2 acyl side, *3 side chain or, on linkers, in order; H or OH if unused. Where a SMILES comes first, the peptide text is derived from it. Bridges are numbered along the chain shown (N, C = ends). [ ]: non-standard residue; d: D form. X1 = Cc1ccc(-c2ccc(-c3cn([C@H]4C[C@@H](C(=O)[*:2])N([*:1])C4)nn3)cc2)s1

Assays:
HIV-1 = format: in vivo; conditions: animal model
clade_AE envelope = format: binding, HIV-1
HIVJRFL = conditions: read-out: HIVJRFL IC50
Fully-infected HIVNL4.3 = conditions: read-out: Fully-infected HIVNL4.3 IC50
HIVBal.01 = conditions: read-out: HIVBal.01 IC50
SARS-CoV-1 pseudoviruses [1] = system: SARS-CoV-1 pseudoviruses
[2] = molecular target: SARS-CoV-2 spike S2 subunit (Severe acute respiratory syndrome coronavirus 2, UniProt P0DTC2)
SARS-CoV-1 pseudoviruses [3] = format: cell-based
SARS-CoV-2 pseudoviruses [4] = system: SARS-CoV-2 pseudoviruses
SARS-CoV-2 pseudoviruses [5] = format: cell-based
SARS-CoV-2 pseudoviruses [6] = format: cell-based; remark: listed apart in the source
SARS-CoV-1 pseudoviruses [7] = format: cell-based; remark: listed apart in the source

CC[C@H](C)[C@@H]1NC(=O)[C@H](CC(N)=O)NC(=O)[C@@H](N)CC(=O)NCCCC[C@@H](C(N)=O)NC(=O)[C@H](Cc2c[nH]c3ccccc23)NC(=O)[C@@H]2C[C@H](n3cc(-c4ccc(-c5ccc(C)s5)cc4)nn3)CN2C1=O [AAR029N2, (3S,6S,14S,17S,20S,24S,25aS)-3-((1H-indol-3-yl)methyl)-14-amino-17-(2-amino-2-oxoethyl)-20-((S)-sec-butyl)-24-(4-(4-(5-methylthiophen-2-yl)phenyl)-1H-1,2,3-triazol-1-yl)-1,4,12,15,18,21-hexaoxotetracosahydro-1H-pyrrolo[2,1-f][1,4,7,10,13,18]hexaazacyclotricosine-6-carboxamide] (H-DNI[X1]WK-NH2; lactam 1-6)
HIV-1 viral load normalized to Hu CD4+ T cell counts (HIV-1): significant efficacy in an animal model | binding to clade_AE envelope (clade_AE envelope): binds clade_AE envelope | IC50 (HIVJRFL): ~112 nM | IC50 (Fully-infected HIVNL4.3): ~180 nM | IC50 (HIVBal.01): ~100 nM

GRFT: lectin Griffithsin, SEQ ID NO:2
virolysis of SARS-CoV-1 pseudoviruses (SARS-CoV-1 pseudoviruses [1]): does not causes significant virolysis | stoichiometry of binding, S2 versus S1 [2]: higher for the S2 subunit as compared to the S1 subunit | inhibition of SARS-CoV-1 pseudovirus infection (SARS-CoV-1 pseudoviruses [3]): reduced inhibition of infection | virolysis of SARS-CoV-2 pseudoviruses (SARS-CoV-2 pseudoviruses [4]): does not causes significant virolysis | irreversible inactivation of SARS-CoV-2 (SARS-CoV-2 pseudoviruses [5]): partial irreversible inactivation | inhibition of SARS-CoV-2 pseudovirus infection (SARS-CoV-2 pseudoviruses [6]): reduced inhibition of infection | irreversible inactivation of SARS-CoV-1 (SARS-CoV-1 pseudoviruses [7]): partial irreversible inactivation
